Measured values: patent US20180303809A1, “TREATMENT OF BURN PAIN BY TRPV1 MODULATORS” (Purdue Pharma L.P., priority 2013, published 2018)

Experiments:
Assay type in all cases: in vivo, rat
male Sprague-Dawley rats [1] = assay: Paw pressure assay, mechanical hyperalgesia (PWT) in thermal burn pain model; settings: rat burn injury 55° C. 24 s, 10 mg/kg PO
Description: (§1) Test Animals: Each experiment used male Sprague-Dawley rats weighing between 190-260 g at the time of thermal burn injury. The rats were housed two per cage, and were allowed to acclimate to their environment for at least six days before testing began. The rats had free access to food and water at all times, except during testing and prior to oral (PO) administration of a test compound, when food was removed about 16 hours before dosing. The rats were divided into treatment groups, and one of the following compounds was administered to each group at the dose and by the route of administration indicated in Tables 5.2A to 5.2C, 5.3A and 5.3B, and 5.4A and 5.4B: ketorolac (Sigma-Aldrich, St. Louis, Mo.), AMG 517 (selective TRPV1 antagonist described in Em. Doherty et al., “Novel vanilloid receptor-1 antagonists:2. Structure-activity relationships of 4-oxopyrimidines leading to the selection of a clinical candidate,” J Med Chem 50:3515-3527 (2007).) (Purdue Pharma L. P., Cranbury, N.J.), indomethacin (Alexis Biochemicals, Farmingdale, N.Y.), gabapentin (Bosche Scientific, New Brunswick, N.J.), or (S)-3-chloro-5-(1,2-dihydroxyethyl)-N-(5-(trifluoromethyl)pyridin-2-yl)-5′,6′-dihydro-[2,4′-bipyridine]-1′(2′H)-carboxamide (Compound 1). The control groups were administered the vehicle for the compound of formula (I). The volume of administration for PO treatment was 5 ml/kg, and was the same for all treatment groups. Volume of administration for intraperitoneal (i.p.) drug administration was 2 ml/kg.
(§2) To assess the actions of a compound of formula (I) for the treatment or prevention of burn pain, a model of thermal burn pain was used. A thermal burn injury was induced under isofluorane/O2 inhalation anesthesia. To assess mechanical hyperalgesia and weight bearing, a thermal injury was produced by immersing the left hind paw into water maintained at 55° C. for 24 seconds. The left hind paw of non-injured control animals was immersed in 22° C. water for 24 seconds. To assess thermal hyperalgesia, a thermal injury was produced by immersing the left hindpaw into water maintained at 50° C. for 48 seconds; the left hind-paw of non-injured control animals was immersed in 22° C. water for 48 seconds. The animals were assessed for response to noxious mechanical stimuli by determining PWT for mechanical hyperalgesia, weight bearing difference between the injured or non-injured side, or response to noxious thermal stimuli by determining PWL for thermal hyperalgesia, all as described below, prior to drug administration (baseline), then again at 1, 3 and 5 hours after induction of burn injury.
The paw pressure assay was used to assess mechanical hyperalgesia. For this assay, hind paw withdrawal thresholds (PWT) to a noxious mechanical stimulus were determined using an analgesimeter (Model 7200, commercially available from Ugo Basile of Italy) as described in C. Stein, “Unilateral Inflammation of the Hindpaw in Rats as a Model of Prolonged Noxious Stimulation: Alterations in Behavior and Nociceptive Thresholds,” Pharmacol. Biochem. and Behavior 31:451-455 (1988). The rat's paw was placed on a small platform, and weight was applied in a graded manner up to a maximum of 250 grams. The endpoint was taken as the weight at which the paw was completely withdrawn. PWT was determined once for each rat at each time point, wherein the affected (ipsilateral; same side as the injury) rear paw was tested. […] All drug treatment groups were compared to the vehicle control group (i.e. injured, administered only the vehicle).

male Sprague-Dawley rats [2] = assay: Plantar test, thermal hyperalgesia (PWL) in thermal burn pain model; settings: rat burn injury 50° C. 48 s
Description: as §1, §2
The plantar test was used to assess thermal hyperalgesia. For this test, hind paw withdrawal latencies (PWL) to a noxious thermal stimulus were determined using a plantar test apparatus (commercially available from Ugo Basile of Italy) following the technique described by K. Hargreaves et al., “A New and Sensitive Method for Measuring Thermal Nociception in Cutaneous Hyperalgesia,” Pain 32(1):77-88 (1988). The maximum exposure time was set at 32 seconds to avoid tissue damage and any directed paw withdrawal from the heat source is taken as the end point. Three latencies were determined at each time point and averaged.

male Sprague-Dawley rats [3] = assay: Hind limb weight bearing (incapacitance meter, % WL) in thermal burn pain model; settings: rat burn injury 55° C. 24 s, 10 mg/kg PO
Description: as §1, §2
A commercially available incapacitance meter was used to determine the weight distribution on the two hind paws of the animal (Linton Incapacitance Tester (Linton Instrumentation, Norfolk, UK)). The weight bearing difference (WBD) between the injured and non-injured hindpaw was measured. The animal was placed in the testing chamber that allows the animal to stand normally, distributing its body weight on the hind limbs for the test. Each hind paw was positioned on a separate pressure sensitive pad, which independently measures the pressure applied by each limb. The device continuously collects data after either a force threshold has been exceeded, or the investigator depresses the start pad. Rats were allowed to acclimate when placed on the apparatus, and when they were stationary, the force exerted was then continuously monitored for 3 s. The endpoint was the amount of pressure applied to each limb over time. Three readings were taken for each rat at each time point, and the average used for data analysis. WBD was expressed as “% WL”, i.e. the percentage of weight borne on the burn-injured left hind paw, using the following formula: […]
where WLP is the weight on the left hind paw and WRP is the weight on the right (untreated) hind paw. The 50% value of % WL corresponds to an equal weight distribution across both hind paws. […]

[4] = baseline (prior to drug administration)
[5] = 10 mg/kg PO, 1 h after administration
[6] = 10 mg/kg PO, 3 h after administration
[7] = 10 mg/kg PO, 5 h after administration
[8] = 30 mg/kg PO, 1 h after administration
[9] = 30 mg/kg PO, 3 h after administration
[10] = 30 mg/kg PO, 5 h after administration

Structure (SMILES): O=C(c1ccccc1)c1ccc2n1CCC2C(=O)O (stereo not shown) [Ketorolac, ketorolac]
- % Decrease from Baseline (mean ± S.E.M.) of Paw Withdrawal Threshold (male Sprague-Dawley rats [1]; 1 h after administration): 66 ± 2.2%
- Paw Withdrawal Threshold (g) (mean ± S.E.M.) (male Sprague-Dawley rats [1]; 1 h after administration): 84 ± 6.1 g
- % Decrease from Baseline (mean ± S.E.M.) of Paw Withdrawal Threshold (male Sprague-Dawley rats [1]; 3 h after administration): 60 ± 3.8%
- Paw Withdrawal Threshold (g) (mean ± S.E.M.) (male Sprague-Dawley rats [1]; 3 h after administration): 97 ± 7.5 g
- % Decrease from Baseline (mean ± S.E.M.) of Paw Withdrawal Threshold (male Sprague-Dawley rats [1]; 5 h after administration): 63 ± 34%
- Paw Withdrawal Threshold (g) (mean ± S.E.M.) (male Sprague-Dawley rats [1]; 5 h after administration): 91 ± 7.1 g
- Paw Withdrawal Threshold (g) (mean ± S.E.M.) (male Sprague-Dawley rats [1]; [4]): 246 ± 4.5 g
- % Change from Baseline (mean ± S.E.M.) of Paw Withdrawal Latency (male Sprague-Dawley rats [2]; [5]): −22.3 ± 6.30%
- Paw Withdrawal Latency (sec) (mean ± S.E.M.) (male Sprague-Dawley rats [2]; [5]): 9.2 ± 0.96 s
- % Change from Baseline (mean ± S.E.M.) of Paw Withdrawal Latency (male Sprague-Dawley rats [2]; [6]): −6.7 ± 5.55%
- Paw Withdrawal Latency (sec) (mean ± S.E.M.) (male Sprague-Dawley rats [2]; [6]): 11.9 ± 1.27 s
- % Change from Baseline (mean ± S.E.M.) of Paw Withdrawal Latency (male Sprague-Dawley rats [2]; [7]): −10.2 ± 3.05%
- Paw Withdrawal Latency (sec) (mean ± S.E.M.) (male Sprague-Dawley rats [2]; [7]): 11.4 ± 0.54 s
- Paw Withdrawal Latency (sec) (mean ± S.E.M.) (male Sprague-Dawley rats [2]; 10 mg/kg PO, baseline (prior to drug administration)): 13.2 ± 0.72 s
- % Change from Baseline (mean ± S.E.M.) of Paw Withdrawal Latency (male Sprague-Dawley rats [2]; [8]): −47.6 ± 19.35%
- Paw Withdrawal Latency (sec) (mean ± S.E.M.) (male Sprague-Dawley rats [2]; [8]): 8.5 ± 0.89 s
- % Change from Baseline (mean ± S.E.M.) of Paw Withdrawal Latency (male Sprague-Dawley rats [2]; [9]): −24.0 ± 19.85%
- Paw Withdrawal Latency (sec) (mean ± S.E.M.) (male Sprague-Dawley rats [2]; [9]): 12.6 ± 1.33 s
- % Change from Baseline (mean ± S.E.M.) of Paw Withdrawal Latency (male Sprague-Dawley rats [2]; [10]): −10.2 ± 12.40%
- Paw Withdrawal Latency (sec) (mean ± S.E.M.) (male Sprague-Dawley rats [2]; [10]): 14.3 ± 0.80 s
- Paw Withdrawal Latency (sec) (mean ± S.E.M.) (male Sprague-Dawley rats [2]; 30 mg/kg PO, baseline (prior to drug administration)): 14.7 ± 1.29 s
- % WL (mean ± S.E.M.), percentage of weight borne on the burn-injured left hind paw (male Sprague-Dawley rats [3]; 1 h after administration): 50.0 ± 2.20 %
- % WL (mean ± S.E.M.), percentage of weight borne on the burn-injured left hind paw (male Sprague-Dawley rats [3]; 3 h after administration): 42.6 ± 1.91%
- % WL (mean ± S.E.M.), percentage of weight borne on the burn-injured left hind paw (male Sprague-Dawley rats [3]; 5 h after administration): 40.1 ± 2.72%
- % WL (mean ± S.E.M.), percentage of weight borne on the burn-injured left hind paw (male Sprague-Dawley rats [3]; [4]): 49.8 ± 0.31%
